In ChEMBL document CHEMBL4316623, “Phosphonodiamidate prodrugs of N-alkoxy analogs of a fosmidomycin surrogate as antimalarial and antitubercular agents” (Bioorg Med Chem Lett, 2019):

What was measured:
[1] = tested on: Mycobacterium tuberculosis; assay: Antitubercular activity against Mycobacterium tuberculosis H37Ra ATCC 25177 harboring lux gene measured after 7 days by luminometric method; format: functional, organism-based; conditions: H37Ra ATCC 25177, 168 h
[2] = Selectivity index, ratio of CC50 for human MRC5 cells to IC50 for Mycobacterium tuberculosis H37Ra ATCC 25177 harboring lux gene; format: toxicity; conditions: read-out: Ratio CC50/IC50

SMILES | IC50 [1] | selectivity ratio [2]
CCOC(=O)[C@H](CC(C)C)NP(=O)(CCCC(=O)N(C)OCc1ccc2ccccc2c1)N[C@@H](CC(C)C)C(=O)OCC | 48.2 µM | 0.11
CCOC(=O)[C@H](CC(C)C)NP(=O)(CCCC(=O)N(C)OCc1ccc(Cl)cc1)N[C@@H](CC(C)C)C(=O)OCC | 49 µM | 0.37
CCOC(=O)[C@H](CC(C)C)NP(=O)(CCCC(=O)N(C)OCc1ccccc1)N[C@@H](CC(C)C)C(=O)OCC | > 64 µM | –
CCOC(=O)[C@H](CC(C)C)NP(=O)(CCCC(=O)N(C)OCc1ccc(C(C)C)cc1)N[C@@H](CC(C)C)C(=O)OCC | 49.1 µM | 0.15
CCOC(=O)[C@H](CC(C)C)NP(=O)(CCCC(=O)N(C)OCCCCc1ccccc1)N[C@@H](CC(C)C)C(=O)OCC | 50.3 µM | 0.14
CCOC(=O)[C@H](CC(C)C)NP(=O)(CCCC(=O)N(C)OCCCc1ccccc1)N[C@@H](CC(C)C)C(=O)OCC | > 64 µM | –
CCOC(=O)[C@H](CC(C)C)NP(=O)(CCCC(=O)N(C)OCc1ccc(-c2ccccc2)cc1)N[C@@H](CC(C)C)C(=O)OCC | 35.2 µM | 0.17
NNC(=O)c1ccncc1 [ISONIAZID] | 0.21 µM | –
CCOC(=O)[C@H](CC(C)C)NP(=O)(CCCC(=O)N(C)O)N[C@@H](CC(C)C)C(=O)OCC | 29.4 µM | > 2.2
